{"source": "patent US10028992B2", "about": "“Methods of treating muscular dystrophy” (BOARD OF REGENTS OF THE NEVADA SYSTEM OF HIGHER EDUCATION …, priority 2012, dated 2018)", "key": {"α7 integrin [1]": {"tested_on": "α7 integrin", "test": "western analysis of α7 integrin in DMD myoblasts/myotubes", "assay_type": "cell-based, human", "conditions": "2,2-dipyridyl 31.25 μM, deferoxamine 5 and 10 μM, 132 hrs", "procedure": "(§1) FIGS. 13A-13D illustrate western blot studies in which protein extracts from C2C12 (A, B) and DMD (C, D) myoblasts were first treated with PBS or 100 nM LAM-111 and then subjected to western analysis of the α7B integrin and the Cox-1 loading standard. *=p<0.05.\nProtein was extracted from the cells and subjected to western blotting using antibodies against α7 integrin. α-tubulin was used as a loading control.\n(§2) It is contemplated that the identified parent scaffolds (Tables 8 and 9) increase α7 integrin expression through a similar mechanism."}, "α7 integrin promoter": {"tested_on": "α7 integrin promoter", "test": "muscle cell-based assay: α7βgal+/− myoblasts/myotubes, LacZ reporter, β-galactosidase cleavage of FDG", "design": "species or system mouse", "conditions": "for EC50: read-out: EC50; for Result in α7+/− β-galactosidase assay: Myoblasts", "procedure,_shortened": "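Fluorescein generated from FDG by β-galactosidase reports α7 integrin promoter activity in differentiated myoblasts from α7+/− LacZ knock-in pups. Screening hits then went to dose-response, western blotting and a myostatin counterscreen.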"}, "α7 integrin [2]": {"tested_on": "α7 integrin", "test": "western analysis of α7 integrin in C2C12 myoblasts/myotubes", "assay_type": "cell-based, mouse", "conditions": "C2C12 myotubes", "procedure": "as §1\nBands were quantified using Image J software and then graphed as α7 Integrin protein levels relative to GAPDH protein levels. * denotes a significant difference in relative protein levels with **p<0.01.\nThe ability of laminin to regulate α7 integrin expression, α7βgal^+/− myoblasts were exposed to 0-200 nM laminin-111 for 24 hours. The activity of the α7 integrin promoter was measured by β-galactosidase cleavage of the non-fluorescent compound fluorescein di-β-D-galactopyranoside (FDG) to fluorescein. […] The ability of laminin-111 to increase α7 integrin expression was confirmed by western analysis using mouse and human DMD muscle cells (FIGS. 2A-2D).\nas §2"}, "Mdx/utr−/− mice": {"tested_on": "Mdx/utr−/− mice", "test": "treatment of mdx/utr−/− mice", "conditions": "mouse, in vivo"}}, "note": "Like-named read-outs stand apart in the source and are kept apart here."}
{"smiles": "c1ccc(-c2ccccn2)nc1", "note": "[2,2-Dipyridyl, 2,2-dipyridyl, reference compound]", "values": [{"measurement": "α7 integrin protein", "setting": "α7 integrin [1]", "value": "increased"}, {"measurement": "Optimal Concentration", "setting": "α7 integrin promoter", "value": 125, "unit": "μm"}, {"measurement": "EC50", "setting": "α7 integrin promoter", "value": 62.5, "unit": "µM"}]}
{"smiles": "CC(C)CCC[C@@H](C)[C@H]1CC[C@H]2[C@@H]3CC(=O)[C@H]4C[C@@H](O)CC[C@]4(C)[C@H]3CC[C@]12C", "note": "[5α-cholestan-3β-ol-6-one, reference compound]", "values": [{"measurement": "α7 integrin protein", "setting": "α7 integrin [1]", "value": "increased"}, {"measurement": "EC100", "setting": "α7 integrin promoter", "value": 20, "unit": "µM"}, {"measurement": "Optimal Concentration", "setting": "α7 integrin promoter", "value": 20, "unit": "μm"}, {"measurement": "EC50", "setting": "α7 integrin promoter", "value": 6, "unit": "µM"}]}
{"smiles": "CCCC(CCC)C(=O)O", "note": "[Valproic acid, valproic acid]", "values": [{"measurement": "α7 integrin protein", "setting": "α7 integrin [2]", "value": "increased"}, {"measurement": "Akt signaling pathway in muscle", "setting": "Mdx/utr−/− mice", "value": "activation"}, {"measurement": "fibrosis", "setting": "Mdx/utr−/− mice", "value": "reduced fibrosis"}, {"measurement": "mobility", "setting": "Mdx/utr−/− mice", "value": "improved mobility"}, {"measurement": "muscle disease", "setting": "Mdx/utr−/− mice; listed as Valproic Acid", "value": "reduced muscle disease"}, {"measurement": "muscle disease", "setting": "Mdx/utr−/− mice; listed as valproic acid", "value": "reduced overall muscle disease"}, {"measurement": "EC50", "setting": "α7 integrin promoter; Mus musculus, enhancement of α7 integrin expression in muscle cells", "value": 500, "unit": "µM"}, {"measurement": "Optimal Concentration", "setting": "α7 integrin promoter; enhancement of α7 integrin expression in muscle cells", "value": 2, "unit": "mM"}]}
{"smiles": "Cc1cc(C)c(/C=C2\\C(=O)Nc3ccccc32)[nH]1", "note": "[drawing 721]", "values": [{"measurement": "Result in α7+/− β-galactosidase assay", "setting": "α7 integrin promoter; 0.5 uM", "value": "−0.05673"}, {"measurement": "Result in α7+/− β-galactosidase assay", "setting": "α7 integrin promoter; 1 uM", "value": "−0.01961"}, {"measurement": "Result in α7+/− β-galactosidase assay", "setting": "α7 integrin promoter; 5 uM", "value": "−0.2468"}, {"measurement": "Result in α7+/− β-galactosidase assay", "setting": "α7 integrin promoter; 10 uM", "value": "−0.2855"}, {"measurement": "Result in α7+/− β-galactosidase assay", "setting": "α7 integrin promoter; 20 uM", "value": "−0.1121"}, {"measurement": "Result in α7+/− β-galactosidase assay", "setting": "α7 integrin promoter; 40 uM", "value": "−0.2422"}]}
{"smiles": "O=C1Nc2ccccc2/C1=C1/Nc2ccccc2/C1=N\\O", "note": "[drawing 722]", "values": [{"measurement": "Result in α7+/− β-galactosidase assay", "setting": "α7 integrin promoter; 0.5 uM", "value": 0.1752}, {"measurement": "Result in α7+/− β-galactosidase assay", "setting": "α7 integrin promoter; 1 uM", "value": 0.3255}, {"measurement": "Result in α7+/− β-galactosidase assay", "setting": "α7 integrin promoter; 5 uM", "value": "−0.404"}, {"measurement": "Result in α7+/− β-galactosidase assay", "setting": "α7 integrin promoter; 10 uM", "value": "−0.681"}, {"measurement": "Result in α7+/− β-galactosidase assay", "setting": "α7 integrin promoter; 20 uM", "value": "−0.6914"}, {"measurement": "Result in α7+/− β-galactosidase assay", "setting": "α7 integrin promoter; 40 uM", "value": "−0.8176"}]}
{"smiles": "CCN(CC)CCNC(=O)c1c(C)[nH]c(CC2C(=O)Nc3ccc(F)cc32)c1C", "note": "(stereo not drawn) [drawing 723]", "values": [{"measurement": "Result in α7+/− β-galactosidase assay", "setting": "α7 integrin promoter; 0.5 uM", "value": 0.02287}, {"measurement": "Result in α7+/− β-galactosidase assay", "setting": "α7 integrin promoter; 1 uM", "value": 0.01135}, {"measurement": "Result in α7+/− β-galactosidase assay", "setting": "α7 integrin promoter; 5 uM", "value": "−0.471"}, {"measurement": "Result in α7+/− β-galactosidase assay", "setting": "α7 integrin promoter; 10 uM", "value": "−0.913"}, {"measurement": "Result in α7+/− β-galactosidase assay", "setting": "α7 integrin promoter; 20 uM", "value": "−0.9852"}, {"measurement": "Result in α7+/− β-galactosidase assay", "setting": "α7 integrin promoter; 40 uM", "value": "−0.9864"}]}
{"smiles": "Cc1[nH]c(/C=C2\\C(=O)Nc3ccc([S+](=O)([O-])Cc4c(Cl)cccc4Cl)cc32)c(C)c1C(=O)C1CCCN1CN1CCCC1", "note": "(stereo not drawn) [drawing 725]", "values": [{"measurement": "Result in α7+/− β-galactosidase assay", "setting": "α7 integrin promoter; 0.5 uM", "value": 0.05199}, {"measurement": "Result in α7+/− β-galactosidase assay", "setting": "α7 integrin promoter; 1 uM", "value": 0.07607}, {"measurement": "Result in α7+/− β-galactosidase assay", "setting": "α7 integrin promoter; 5 uM", "value": "−0.1295"}, {"measurement": "Result in α7+/− β-galactosidase assay", "setting": "α7 integrin promoter; 10 uM", "value": "−0.4121"}, {"measurement": "Result in α7+/− β-galactosidase assay", "setting": "α7 integrin promoter; 20 uM", "value": "−0.9816"}, {"measurement": "Result in α7+/− β-galactosidase assay", "setting": "α7 integrin promoter; 40 uM", "value": "−0.9806"}]}
{"smiles": "O=C1Nc2ccccc2/C1=C1/Nc2ccccc2/C1=N\\O", "note": "[drawing 726]", "values": [{"measurement": "Result in α7+/− β-galactosidase assay", "setting": "α7 integrin promoter; 0.5 uM", "value": 0.07252}, {"measurement": "Result in α7+/− β-galactosidase assay", "setting": "α7 integrin promoter; 1 uM", "value": 0.1204}, {"measurement": "Result in α7+/− β-galactosidase assay", "setting": "α7 integrin promoter; 5 uM", "value": "−0.1537"}, {"measurement": "Result in α7+/− β-galactosidase assay", "setting": "α7 integrin promoter; 10 uM", "value": "−0.432"}, {"measurement": "Result in α7+/− β-galactosidase assay", "setting": "α7 integrin promoter; 20 uM", "value": "−0.6932"}, {"measurement": "Result in α7+/− β-galactosidase assay", "setting": "α7 integrin promoter; 40 uM", "value": "−0.758"}]}
